These results are taken from patent US20110183999A1, “NOVEL POLYMORPHIC FORMS OF METHYL CARBAMATE” (BAYER SCHERING PHARMA AKTIENGESELLSCHAFT, priority 2009, published 2011).

Series [1] in a line: Thermogravimetry (TGA) mass loss. It is filed as physicochemical. Particulars: heating rate 10 Kmin^−1, open platinum crucibles, nitrogen purge. The method, then:
The TGA measurements were carried out using TGA7 and Pyris-1-TGA thermobalances from Perkin-Elmer using a heating rate of 10 Kmin^−1. The measurements were carried out in open platinum crucibles, the purge gas used was nitrogen. There was no sample preparation.

The nature of series [2]: Thermodynamic and storage stability of the solid form. Particulars: also after processing to suspensions. In kind it is physicochemical.

For `COC(=O)Nc1c(N)nc(-c2nn(Cc3ccccc3F)c3ncccc23)nc1N` [amorphous, methyl {4,6-diamino-2-[1-(2-fluorobenzyl)-1H-pyrazolo[3,4-b]pyridin-3-yl]pyrimidin-5-yl}carbamate], the Mass loss entry in series [1] is “about 10 % by weight”. Turning to `COC(=O)Nc1c(N)nc(-c2nn(Cc3ccccc3F)c3ncccc23)nc1N` [mesomorphous, Methyl {4,6-diamino-2-[1-(2-fluorobenzyl)-1H-pyrazolo[3,4-b]pyridin-3-yl]pyrimidin-5-yl}-carbamate, reference compound], the Mass loss entry in series [1] is recorded as “about 8 % by weight”. For the same compound, the “Stability of the solid form (thermodynamic / storage)” value in series [2] (listed as mesomorphous form) is “metastable”. In series [1], `COC(=O)Nc1c(N)nc(-c2nn(Cc3ccccc3F)c3ncccc23)nc1N` [modification I, methyl {4,6-diamino-2-[1-(2-fluorobenzyl)-1H-pyrazolo[3,4-b]pyridin-3-yl]pyrimidin-5-yl}-carbamate] had a Mass loss of less than 0.5 % by weight. The “Stability of the solid form (thermodynamic / storage)” value in series [2] was “thermodynamically stable and storage-stable even after processing to suspensions”. In series [1], `COC(=O)Nc1c(N)nc(-c2nn(Cc3ccccc3F)c3ncccc23)nc1N` [modification II, methyl {4,6-diamino-2-[1-(2-fluorobenzyl)-1H-pyrazolo[3,4-b]pyridin-3-yl]pyrimidin-5-yl}carbamate] displayed a Mass loss of less than 0.5 % by weight.

Compound `COC(=O)Nc1c(N)nc(-c2nn(Cc3ccccc3F)c3ncccc23)nc1N` [modification III, methyl {4,6-diamino-2-[1-(2-fluorobenzyl)-1H-pyrazolo[3,4-b]pyridin-3-yl]pyrimidin-5-yl}carbamate] gave a Mass loss in series [1] of less than 0.5 % by weight. Same read-out and setting: for `COC(=O)Nc1c(N)nc(-c2nn(Cc3ccccc3F)c3ncccc23)nc1N` [modification IV, methyl {4,6-diamino-2-[1-(2-fluorobenzyl)-1H-pyrazolo[3,4-b]pyridin-3-yl]pyrimidin-5-yl}carbamate] the value was less than 1 % by weight.
